Experimental data published in patent publication US10905764B2, “Hydrated food” (Taiyokagaku Co., Ltd., priority 2005, dated 2021).

Experiments:
mice = format: in vivo; conditions: oral administration of theanine by 5 g/kg
From the text: Theanine used in the invention has a high security. […] Furthermore, theanine is known as a principal component of deliciousness of tea and used as a food additive for use as gustatory. An amount of theanine to be added is not limited under the Food Sanitation Law.

[1] = Dissolution / water solubility; conditions: in the hydrated food

CCNC(=O)CC[C@H](N)C(=O)O [theanine, L-theanine]
mortality in acute toxicity test (mice): no mice died
upper limit of dissolution [1]: 250 mg/mL
